Results reported in patent US10842796B2, “Treatment of dementia” (WisTa Laboratories Ltd., priority 2016, dated 2020).
Where two headings read alike, the source gives them in different places.

Assays:
[1] = compatibility of LMTM tablets with AD treatments (HPLC recovery of LMT and MT); assay type: physicochemical
Experimental: The effect of combining tablets of galantamine, memantine, donepezil or rivastigmine independently with LMTM was studied and LMTM was analysed in the resultant mixture.
One LMTM tablet (100 mg) was added to a degassed 200 ml amber volumetric flask along with one prescription dose of each of the test drugs, as indicated in the table below, and 100 ml of diluent (degassed 0.1% formic acid). Flasks were given an argon headspace and shaken on a wrist action shaker for 40 minutes at 250 oscillations/min. Samples were then diluted to the graduation mark with diluent, given an argon headspace and inverted to mix. Subsamples of the resulting solution were centrifuged at 13,000 rpm for 5 minutes to remove any undissolved excipients and the supernatant placed in an amber HPLC vial and injected into a high performance liquid chromatography (HPLC) system (Agilent 1260) to separate LMT and MT. LMT and MT peaks were identified by absorbance at 255 nm with retention times of 5.5 and 14 minutes, respectively (FIG. 11).

[2] = 14-day and 25-day repeat-dose studies in healthy volunteers (discoloration); assay type: in vivo, human; conditions: 4 mg BID lowest dose with comparable discoloration
[3] = test system: behavioural variant frontotemporal dementia (bvFTD); conditions: for ACE-R treatment effect mean (se) / FAQ treatment effect mean (se) / Fronto-temporal volume treatment effect mean (se): wrt 4 mg b.i.d. alone
Experimental: (1) Addenbrooke's Cognitive Examination—revised (ACE-R) and (2) Functional Activities Questionnaire [FAQ] or MRI (with Bonferroni Holme correction)
The effect of co-medication with symptomatic AD treatments which modify synaptic neurotransmission in the brain (acetylcholinesterase inhibitors or the NMDA antagonist “memantine”) was assessed. For brevity these treatments may be referred to as “AChEI/Mem” below.

TDP-43 aggregates = conditions: 0.05 μM MT; SH-SYSY cells; cited from earlier work
[4] = 100 mg LMTM + 6 mg rivastigmine
[5] = 100 mg LMTM + 12 mg galantamine
[6] = 100 mg LMTM tablet, no addition, HPLC 255 nm
[7] = 4 mg b.i.d. versus 100 mg b.i.d.
[8] = ANCOVA model, 4 mg b.i.d. as add-on to AChEI/Mem
[9] = ANCOVA model, 100 mg b.i.d. alone
[10] = ANCOVA model, 100 mg b.i.d. as add-on to AChEI/Mem
[11] = MMRM model, 4 mg b.i.d. as add-on to AChEI/Mem
[12] = MMRM model, 100 mg b.i.d. alone
[13] = MMRM model, 100 mg b.i.d. as add-on to AChEI/Mem

Compound: CN(C)c1ccc2c(c1)Sc1cc(N(C)C)ccc1N2 [LMTM, leuco-methylthioninium bis(hydromethanesulfonate)]
- LMT (% difference from control*) [1, 4]: 5.64%
- LMT (area) [1, 4]: 23302.4 area
- MT (% difference from control*) [1, 4]: 2.14%
- MT (area) [1, 4]: 320.6 area
- LMT (% difference from control*) ([1]; 100 mg LMTM + 10 mg donepezil): −2.58%
- LMT (area) ([1]; 100 mg LMTM + 10 mg donepezil): 22058.4 area
- MT (% difference from control*) ([1]; 100 mg LMTM + 10 mg donepezil): −6.58%
- MT (area) ([1]; 100 mg LMTM + 10 mg donepezil): 313.9205 area
- LMT (% difference from control*) ([1]; 100 mg LMTM + 10 mg memantine): 2.19%
- LMT (area) ([1]; 100 mg LMTM + 10 mg memantine): 22642.3 area
- MT (% difference from control*) ([1]; 100 mg LMTM + 10 mg memantine): 1.10%
- MT (area) ([1]; 100 mg LMTM + 10 mg memantine): 336 area
- LMT (% difference from control*) [1, 5]: −1.37%
- LMT (area) [1, 5]: 22157.4 area
- MT (% difference from control*) [1, 5]: −14.90%
- MT (area) [1, 5]: 332.3 area
- LMT (area) [1, 6]: 22465.7 area
- MT (area) [1, 6]: 390.5473 area
- amount of oxidised MT after mixing ([1]; after mixing with any of the AChEIs or memantine): not increased
- LMTM found in the oxidised form ([1]; following HPLC analysis): Less than 2%
- urine and stool discoloration [2]: associated with urine and stool discoloration
- decline on ACE-R and MMSE compared with historical controls ([3]; 4 mg b.i.d. and 100 mg b.i.d.): significantly less than historical controls
- ADCS-CGIC, FRS, MMSE, UPDRS (safety outcome) [3, 7]: no difference
- primary analysis models for ACE-R, FAQ and Whole Brain Volume [3, 7]: no difference
- 12 m change in MMSE (decline), present study ([3]; 4 mg bd): 3.4 ± 0.5
- 12 month change in ACE-R (decline), present study ([3]; 4 mg bd): 10.4 ± 1.4
- 12 m change in MMSE (decline), present study ([3]; 100 mg bd): 3.0 ± 0.7
- 12 month change in ACE-R (decline), present study ([3]; 100 mg bd): 10.7 ± 1.4
- ACE-R treatment effect mean (se) [3, 8]: 6.52 (2.42)
- FAQ treatment effect mean (se) [3, 8]: 2.15 ± 1.21
- Fronto-temporal volume treatment effect mean (se) [3, 8]: 356 (237)
- ACE-R treatment effect mean (se) [3, 9]: 1.35 (1.71)
- FAQ treatment effect mean (se) [3, 9]: −0.11 ± 0.87
- Fronto-temporal volume treatment effect mean (se) [3, 9]: −98 (173)
- ACE-R treatment effect mean (se) [3, 10]: 9.69 (2.73)
- FAQ treatment effect mean (se) [3, 10]: 1.90 ± 1.37
- Fronto-temporal volume treatment effect mean (se) [3, 10]: 481 (258)
- ACE-R treatment effect mean (se) [3, 11]: 7.17 ± 3.25
- FAQ treatment effect mean (se) [3, 11]: 2.08 ± 1.31
- Fronto-temporal volume treatment effect mean (se) [3, 11]: 240 (291)
- ACE-R treatment effect mean (se) [3, 12]: −1.12 ± 2.28
- FAQ treatment effect mean (se) [3, 12]: −0.03 ± 0.92
- Fronto-temporal volume treatment effect mean (se) [3, 12]: −4 (207)
- ACE-R treatment effect mean (se) [3, 13]: 5.65 ± 3.57
- FAQ treatment effect mean (se) [3, 13]: 2.36 ± 1.45
- Fronto-temporal volume treatment effect mean (se) [3, 13]: 278 (313)
- safety profile ([3]; data not shown): raised no major concerns
- FAQ, MMSE and fronto-temporal volume, LMTM in combination with AD treatments versus LMTM alone ([3]; post hoc exploratory analyses): directionally supportive benefits
- ACE-R, LMTM in combination with off-label AD treatments (AChEI/Mem) versus LMTM alone ([3]; post hoc exploratory analyses with AD-comedication status and severity as covariates): significant benefits

Compound: Methylthioninium [MT]
- reduction of number of intracellular TDP-43 aggregates (TDP-43 aggregates): 50%
